The values that follow come from patent publication US20090005385A1, “Treatment or Prevention of Cancer or Cardiovascular Disease with Methenyltetrahydrofolate Synthetases” (CORNELL RESEARCH FOUNDATION, INC., priority 2004, published 2009).

One may read the Ki as a measure of affinity in units of concentration, obtained from inhibition or displacement. As usually defined, the Km is the substrate concentration at which the rate is half of its maximum.

The target of one experiment is T1, MTHFS (Mus musculus, UniProt Q9D110).
T1 sequence (Q9D110 1-203): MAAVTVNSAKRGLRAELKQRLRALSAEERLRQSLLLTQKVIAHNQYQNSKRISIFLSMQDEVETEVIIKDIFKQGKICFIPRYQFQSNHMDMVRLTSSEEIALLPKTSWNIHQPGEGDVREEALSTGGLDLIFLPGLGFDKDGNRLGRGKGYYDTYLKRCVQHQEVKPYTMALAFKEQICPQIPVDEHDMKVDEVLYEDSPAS
The experiment in a line: Inhibition of MTHFS by folates/antifolates, reaction specificity (Ki, Km). The note with it: for Km: substrate of MTHFS. The class given is biochemical. As for the experimental part: Tissue samples were sonicated four times for 15 s in a buffer containing 100 mM HEPES pH 7.0, 100 mM sodium chloride, 5 mM EDTA, 1% Tween-20. The solution was clarified by centrifugation. MTHFS activity was determined using a spectrophotometer by monitoring the appearance of 5,10-methenyltetrahydrofolate, which has an absorbance maximum at 355 nm. For a typical assay, 50 μL of clarified tissue supernatant was added to a quartz cuvette containing 100 μM (6S)-5-formylTHF, 1 mM Mg-ATP and 100 mM MES, pH 6.0 and the rate of 5,10-methenylTHF formation was quantified. Activity measurements were normalized to total protein that was quantified using the Lowry-Bensadoun method (Bensadoun et al., “Assay of Proteins in the Presence of Interfering Materials,” Anal Biochem 70:241-250 (1976), which is hereby incorporated by reference in its entirety).
Several 10-formyl-substituted folates were screened for their ability to inhibit wild-type MTHFS.

Experiment [1] relates to MCF-7 cells. The experiment in a line: Folate turnover in cultured cells (pulse-chase). The class given is cell-based, human. Particulars: 20 μM in chase medium. As for the experimental part: Cell monolayers at 75% confluence were washed with PBS, then labeled for 12 h in defined αMEM lacking folate and glycine and supplemented with 25 nM (6S)-[^3H]5-formylTHF. For the chase, cell monolayers were washed with 10 ml of PBS, trypsinized, and pelleted by centrifugation. The cells were seeded in triplicate (1×10^6 cells) into 100 mm culture plates containing 10 ml of defined αMEM supplemented with 2 μM folic acid. Catecholamines (20 μM dopamine, NADA, and L-dopa) were prepared freshly and added to the chase media prior to the addition of labeled cells. Cells were harvested at defined time points, the medium was removed and the tritium in the medium was quantified. The cell monolayers were washed with PBS and lysed with 0.2 M ammonium hydroxide. Tritium remaining in the cells was quantified using a Beckman LS 8100 liquid scintillation counter.
Catecholamine availability may be rate limiting for MTHFS-catalyzed folate catabolism in MCF-7 cells. The effects of exogenous catecholamines on folate turnover rates were determined using pulse-chase analyses in MCF-7 cells. Folate turnover in MCF-7 cells labeled with [^3H]-5-formylTHF is biphasic, with an initial rapid phase of turnover followed by a slower phase (Anguera et al., J. Biol. Chem. 278:29856-29862 (2003), which is hereby incorporated by reference in its entirety). Addition of 20 μM NADA to the chase medium increased the magnitude of the rapid phase of folate turnover by 12% compared to untreated cells (FIG. 11A). […] To distinguish between these two mechanisms, 20 μM dopamine and L-dopa were added to the chase medium. Dopamine is the precursor of NADA, and both dopamine and L-dopa can function as oxidants following oxidation of their diphenolic ring generating dopamine-quinone or dopa-quinone (Rescigno et al., Biochemical Pharmacology 56:1089-1096 (1998); Graham, D. G. Mol. Pharmacol. 14:633-643 (1978), which are hereby incorporated by reference in their entirety). […] The addition of dopamine to the culture medium increased the magnitude of the rapid phase of folate turnover by only 4% relative to untreated cells (FIG. 11A). The minor effect of dopamine on folate turnover may reflect N-acetyltransferase-mediated dopamine acetylation that generating NADA. […] In summary, the pulse chase experiments indicate that NADA may be limiting for in vivo folate catabolism, and NADA may function specifically as the electron acceptor molecule for MTHFS-mediated folate catabolism.

In experiment [2] the test system is MCF-7 cells. The experiment in a line: Radiolabeled folate accumulation in cultured cells treated with catecholamines. It is filed as cell-based, human. Particulars: 12 h, 25 nM (6S)-[^3H]-5-formylTHF, 0-150 μM catecholamine. As for the experimental part:
Cell monolayers at 70% confluence in 6-well plates were labeled for 12 h in defined αMEM lacking folate and glycine, but supplemented with 25 nM (6S)-[^3H]5-formylTHF and 0, 25 μM, 50 μM, 75 μM, 100 μM, or 150 μM NADA, dopamine, or epinephrine. Cells were harvested by washing with 5 mL PBS, trypsinized, and pelleted by centrifugation and viable cells (determined by their ability to exclude trypan blue) were quantified. The cell pellets were lysed with 0.2 M ammonium hydroxide, and the intracellular tritium was quantified using a Beckman LS 8100 liquid scintillation counter.
Because the addition of NADA to the chase medium increased folate turnover rates in MCF-7 cells, the effects of various catecholamines on [^3H]folate accumulation was investigated. Cells were cultured for 12 h in defined αMEM medium containing 25 nM (6S)-[^3H]-5-formylTHF and various concentrations of NADA, dopamine, and epinephrine, and cellular [^3H]folate content was determined.

Setting [3] is: 37° C., pH 6.0, inhibitor of MTHFS, read-out: Ki.

“And” between values parts separate entries of the source, which are not always exact repeats. Equal values may be shown once. Read-outs that look alike come from different tables or passages of the source.

For the compound `CN(CC1CNc2nc(N)[nH]c(=O)c2N1C=O)c1ccc(C(=O)N[C@@H](CCC(=O)O)C(=O)O)cc1` (mixture of isomers) [(6RS)5-formyl,10-methylTHF], on MTHFS (setting [3]), the Ki stood at 10 ± 1 µM. On to `Nc1nc2ncc(CN(C=O)c3ccc(C(=O)N[C@@H](CCC(=O)O)C(=O)O)cc3)nc2c(=O)[nH]1` [10-formylfolic acid], for which the Ki at MTHFS (setting [3]) is 13 ± 6 µM. The “fold increase of affinity for MTHFS by N^10 formylation of folic acid” value on MTHFS (relative to folic acid) was approximately 5 fold. In the case of `CN(CC1CNc2nc(N)[nH]c(=O)c2N1C=O)c1ccc(C(=O)N[C@@H](CCC(=O)N[C@@H](CCC(=O)N[C@@H](CCC(=O)O)C(=O)O)C(=O)O)C(=O)O)cc1` (mixture of isomers) [(6RS)5-formyl,10-methylTHFGlu3], the Ki at MTHFS (setting [3]) is 20 ± 2 µM. Still for that read-out and setting: the same measure for `Nc1nc2ncc(CNc3ccc(C(=O)N[C@@H](CCC(=O)N[C@@H](CCC(=O)N[C@@H](CCC(=O)O)C(=O)O)C(=O)O)C(=O)O)cc3)nc2c(=O)[nH]1` [folic acidGlu3]: 17 ± 3 µM; for `CN(CCC1CNc2nc(N)[nH]c(=O)c2N1C=O)c1ccc(C(=O)N[C@@H](CCC(=O)O)C(=O)O)cc1` (mixture of isomers) [(6RS)5-formyl,10-methylTHHF]: 6 ± 3 µM.

As for `Nc1nc2c(c(=O)[nH]1)N(C=O)C(CNc1ccc(C(=O)O)cc1)CN2` (racemic) [(6RS)5-formylTHPteroate], the Km on MTHFS (37° C., pH 6.0) was determined as 33 ± 10 µM.

Take `Nc1nc2ncc(CNc3ccc(C(=O)NC(CCC(=O)NC(CCC(=O)NC(CCC(=O)NC(CCC(=O)NC(CCC(=O)O)C(=O)O)C(=O)O)C(=O)O)C(=O)O)C(=O)O)cc3)nc2c(=O)[nH]1` (stereo not shown) [folic acidGlu5]: the Ki at MTHFS (setting [3]) came out at 1 ± 0.3 µM. The same measure, in the same setting: under `Nc1nc2c(c(=O)[nH]1)NC(CN(C=O)c1ccc(C(=O)O)cc1)CN2` (racemic) [(6RS)10-formylTHPteroate] stands 5 ± 2 µM.

Consider `Nc1nc2ncc(CNc3ccc(C(=O)N[C@@H](CCC(=O)O)C(=O)O)cc3)nc2c(=O)[nH]1` [folic acid], for which the Ki on MTHFS (setting [3]) was 58 ± 5 µM.

As for `Nc1nc2c(c(=O)[nH]1)NC(CN(C=O)c1ccc(C(=O)N[C@@H](CCC(=O)N[C@@H](CCC(=O)N[C@@H](CCC(=O)O)C(=O)O)C(=O)O)C(=O)O)cc1)CN2` (mixture of isomers) [(6RS)10-formylTHFGlu3], the “fold increased affinity (Ki) compared to the substrate 5-formylTHF triglutamate (Km)” value on MTHFS was 13 fold. Also, on MTHFS (setting [3]), the Ki was found to be 0.03 ± 0.01 µM. With `Nc1nc2c(c(=O)[nH]1)N(C=O)C(CCNc1ccc(C(=O)N[C@@H](CCC(=O)O)C(=O)O)cc1)CN2` (mixture of isomers) [(6RS)5-formylTHHF, 5-formyltetrahydrohomofolate], on MTHFS (setting [3]), the Ki is 0.7 ± 0.3 µM. On to `Nc1nc2c(c(=O)[nH]1)NC(CN(C=O)c1ccc(C(=O)N[C@@H](CCC(=O)N[C@@H](CCC(=O)N[C@@H](CCC(=O)O)C(=O)O)C(=O)O)C(=O)O)cc1)CN2` (stereo partly shown) [10-formylTHF triglutamate], for which, on MTHFS (natural isomer, read-out: Ki for MTHFS), the Ki was 0.015 µM. In the case of `Nc1nc2c(c(=O)[nH]1)NC(CN(C=O)c1ccc(C(=O)N[C@@H](CCC(=O)O)C(=O)O)cc1)CN2` (stereo partly drawn) [(6R)10-formylTHF, 10-formyltetrahydrofolate], at MTHFS, the “fold increased affinity for MTHFS (Ki) compared to the substrate 5-formylTHF (Km)” value is 56 fold and 60 fold. In addition, at MTHFS (setting [3]), the Ki was 0.15 µM. Take `N[C@@H](Cc1ccc(O)c(O)c1)C(=O)O` [L-dopa]: the “folate turnover rates compared to untreated cells” value in the experiment with MCF-7 cells [1] is listed as “did not affect folate turnover rates”. `CNC[C@H](O)c1ccc(O)c(O)c1` [epinephrine]: the “[^3H]folate accumulation” value with MCF-7 cells [2] is “Neither the addition of dopamine nor epinephrine to culture media impaired [^3H]folate accumulation”. With `Nc1nc2c(c(=O)[nH]1)NC(CCN(C=O)c1ccc(C(=O)NC(CCC(=O)O)C(=O)O)cc1)CN2` (racemic) [(6RS)10-formylTHHF], the “Ki fold lower than the Ki for 5-formylTHHF” value at MTHFS was 3 fold. For the same compound, at MTHFS (setting [3]), the Ki is 0.19 ± 0.02 µM. On to `Nc1nc2c(c(=O)[nH]1)N(C=O)C(CNc1ccc(C(=O)N[C@@H](CCC(=O)O)C(=O)O)cc1)CN2` (stereo partly drawn) [(6S)5-formylTHF, 5-formyl tetrahydrofolate], for which the Km on MTHFS (37° C., pH 6.0) was 10 ± 3 µM. Same read-out and setting: the same measure for `Nc1nc2c(c(=O)[nH]1)N(C=O)C(CNc1ccc(C(=O)NC(CCC(=O)NC(CCC(=O)NC(CCC(=O)O)C(=O)O)C(=O)O)C(=O)O)cc1)CN2` (racemic) [(6RS)5-formylTHFGlu3]: 0.4 ± 0.1 µM.
